Like-named read-outs stand apart in the source and are kept apart here.
Experiments:
[1] = Skin penetration and percutaneous absorption of 14C-HEPES after a single topical dose; format: in vivo, human; conditions: for Mean urinary excretion of radioactivity: mean (S.D.), up to 120 hours
Method: The skin penetration and percutaneous absorption of radioactivity following topical administration of a single does of ^14 C-HEPES (approximately 100 mg 5% cream containing 70 uCi ^14 C) was investigated in two groups of six healthy male volunteers. The dose was applied to intact skin in one group and to skin stripped 10 times with scotch tape in the second group. The unabsorbed material was removed after 12 hours and the area of application was stripped 10 times in order to determine skin penetration. Blood, urine and faeces samples were collected up to 120 hours after dose application for assessment of total radioactivity.

[2] = test system: myeloperoxidase; experiment: Binding of zwitterion to myeloperoxidase (preliminary studies)
[3] = test system: neutrophils; experiment: Hypochlorous acid production by neutrophils; format: cell-based; conditions: Homo sapiens, Neutrophil, 10 mM HEPES, mean ± S.E.M.
Text: (§1) Patients were selected with mild to moderate plaque-type psoriasis on the basis of clinical and histological evidence of disease. Normal volunteers were selected from laboratory personnel without personal or family history of inflammatory disease. Disease control groups included: a) patients with eczema, acne and dermatitis herpetiformis; and b) patients with Crohn's disease and ulcerative colitis.
(§2) Blood samples from each subject were drawn into sodium heparin Vacutainers® (Vacutainer is a Trade Mark). The inflammatory cells (neutrophils) were isolated by dextran sedimentation and FICOLL-PAQUE®(FICOLL-PLAQUE is a Trade Mark) gradient centrifugation. Viability and purity were assessed by fluorescence microscopy, using ethidium bromide and acridine orange staining.

[4] = test system: peripheral blood neutrophils; experiment: Chemiluminescence (reactive oxidant production) of peripheral blood neutrophils stimulated with calcium ionophore; format: cell-based; conditions: Homo sapiens, Neutrophil, 10 mM HEPES, mean ± S.E.M., read-out: Chemiluminesence production by neutrophils
Text: Patients were selected with mild to moderate plaque-type psoriasis on the basis of clinical and histological evidence of disease. Normal volunteers were selected from laboratory personnel without personal or family history of inflammatory disease. Disease control groups included: a) patients with eczema, acne and dermatitis herpetiformis; and b) patients with Crohn's disease and ulcerative colitis. Blood samples from each subject were drawn into sodium heparin Vacutainers® (Vacutainer is a Trade Mark). The inflammatory cells (neutrophils) were isolated by dextran sedimentation and FICOLL-PAQUE®(FICOLL-PLAQUE is a Trade Mark) gradient centrifugation. Viability and purity were assessed by fluorescence microscopy, using ethidium bromide and acridine orange staining. […] Chemiluminescence activity of the peripheral blood neutrophils was tested using the method of Bloomfield, F. J. and Young, M. M. (Inflammation, (1982) 6, 257, hereby incorporated by reference), using calcium ionophore (2μ Molar) as stimulant instead of opsonized zymosan. Chemiluminescence is a measure of the production of reactive oxidants by neutrophils in response to an inflammatory stimulus. It was observed that there was significant reduction in chemiluminescence activity by neutrophils in the taurine-treated and HEPES-treated cells compared to control cells in all groups.

[5] = test system: catalase; experiment: Catalase activity of neutrophils after preincubation; format: cell-based, human; conditions: neutrophils preincubated with HEPES or taurine; data not shown
[6] = test system: monocytes; experiment: Leukotriene B4 in stimulated monocytes; format: cell-based, human; conditions: preincubation with 10 mM HEPES or 40 mM taurine; data not shown
Text: (§3) It was therefore proposed to test the hypothesis that HEPES could inactivate leukotriene B4 by indirect stimulation of MPO leading to increased production of hypochlorous acid from cellular hydrogen peroxide.

[7] = test system: neutrophils; experiment: Degranulation of lysosomal enzymes by neutrophils stimulated with calcium ionophore; format: cell-based, human; conditions: for activity at 10000 µM: Homo sapiens, Neutrophil, 10 mM HEPES, mean
Text: as §1, §2
Stimulation of the inflammatory process in neutrophils, not only activates the respiratory burst, but as a consequence, is also associated with release of lysosomal enzymes from the cells in a process called degranulation. Degranulation of lysosomal enzymes was stimulated in neutrophils from each group of subjects, using calcium ionophore as inflammatory stimulant.

[8] = test system: carrageenan induced paw oedema; experiment: Carrageenan-induced paw oedema in rats; format: in vivo, rat
Method: The studies were conducted on inbred Wistar strain albino rats (120-180 g) of either sex. The rats were housed in colony cages at an ambient temperature of 25°±2° C. and fed on standard pellet chow. The rats were anaesthetized using pentobarbitone sodium, their hind paws were marked and the volume measured. […] The control animals were injected with 10 μl of 0.9% saline solution. […] One hour following the carrageenan injection the hind paw volume was measured again. A 5 ml blood sample was taken from each animal into sodium heparin Vacutainers. Chemiluminescence activity was assayed in the PBMC isolated from each animal.
These studies were also conducted on inbred Wistar strain albino rats (120-180 g) of either sex. The rats were anaesthetized using pentobarbitone sodium prior to marking each hind paw and measuring paw volume. […] The control animals received 0.5 ml of 0.9% NaCl subcutaneously. 30 min after the injections were administered, paw oedema was induced using carrageenan. One hour following carrageenan administration the hind paw volume was measured. A 5 ml blood sample was taken from each animal into sodium heparin Vacutainers and used for chemiluminescence measurement.

[9] = test system: myeloperoxidase; experiment: Myeloperoxidase activity of neutrophils after preincubation with zwitterion; format: cell-based, human; conditions: 10 mM HEPES, mean ± S.E.M.
Text: as §1, §2

[10] = test system: neutrophils; experiment: Leukotriene B4 in supernatants of stimulated neutrophils; format: cell-based, human; conditions: 10 mM HEPES, mean ± S.E.M.; for activity at 10000 µM: Homo sapiens, Neutrophil, read-out: Leukotriene B4 production by neutrophils
Text: as §1, §2, §3
For the methodology used in the in vitro studies hereinafter described reference should be made to McLoughlin, D. M. et al. Biochem. Soc. Trans. (1991) 19:73-78 hereby incorporated by reference, except where otherwise stated.

[11] = Normal + iodide (1 mM potassium iodide)

O=S(=O)(O)CCN1CCN(CCO)CC1 [HEPES, N-2-hydroxyethylpiperazine-N'-2-ethanesulphonic acid]
tolerability of single topical dose ([1]; intact and stripped skin groups): well tolerated
Mean urinary excretion of radioactivity ([1]; intact skin group): 0.07+0.08% of the applied dose
radioactivity in 48-72 hour faecal sample ([1]; one subject of the stripped skin group): 0.11 % of the applied dose
abnormalities in biochemistry, haematology and urinalysis screens ([1]; single topical dose): not considered to be related
radioactivity in plasma or faecal samples ([1]; single topical dose approx. 100 mg 5% cream, intact and stripped skin groups, samples up to 120 hours): No radioactivity was detected
Mean urinary excretion of radioactivity ([1]; stripped skin group): 0.20±0.22% of the applied dose
binding to the enzyme (MPO) [2]: did not bind to the enzyme
activity at 10000 µM ([3]; Normal): 211 ± 12.5%
activity at 10000 µM ([3]; Psoriasis): 193 ± 10.7%
activity at 10000 µM ([3]; disease controls (a)): 152 ± 8.3%
activity at 10000 µM ([4]; Normal): 28.8 ± 4.24%
activity at 10000 µM ([4]; Psoriasis): 26.9 ± 3.25%
activity at 10000 µM ([4]; disease controls (a) eczema, acne, dermatitis herpetiformis): 28.8 ± 3.84%
activity at 10000 µM ([4]; disease controls (b) Crohn's disease, ulcerative colitis): 25.4 ± 6.4%
effect on catalase activity [5]: no effect on catalase activity
reduction of leukotriene B4 in monocytes [6]: also demonstrated in monocytes
activity at 10000 µM ([7]; Normal): 104%
activity at 10000 µM ([7]; Psoriasis): 104%
activity at 10000 µM ([7]; disease controls (a)): 87.2%
degranulation by preincubated neutrophils compared to control cells ([7]; result in words, taurine data not shown): no difference in degranulation
percentage increase in paw volume ([8]; I.P. 500 μg HEPES, 1 h after carrageenan, mean ± S.E.M.): 23 ± 4 percentage increase in paw volume
reduction in paw oedema ([8]; intraperitoneal 500 μg HEPES, versus control): 50%
Myeloperoxidase activity of neutrophils ([9]; Normal): 228 ± 25.4 percentage activity of control
Myeloperoxidase activity of neutrophils ([9]; Psoriasis): 247 ± 30.1 percentage activity of control
Myeloperoxidase activity of neutrophils ([9]; disease controls (a)): 198 ± 17.1 percentage activity of control
Myeloperoxidase activity of neutrophils ([9]; disease controls (b)): 211 ± 56.4 percentage activity of control
Leukotriene B4 production by neutrophils [10, 11]: no measurable leukotriene B4
activity at 10000 µM [10, 11]: 0%
activity at 10000 µM ([10]; Normal): 55.8 ± 8.9%
activity at 10000 µM ([10]; Psoriasis): 22.4 ± 6.62%
activity at 10000 µM ([10]; disease controls (a)): 24.9 ± 8.99%
activity at 10000 µM ([10]; disease controls (b)): 16.7 ± 6.42%

Source: patent publication US5248680A, “Zwitterionic compounds and their n-halo derivatives for use in the treatment of clinical conditions” (Bloomfield D.A., priority 1990, dated 1993)
